Experiments:
[1] = tested on: DENV-2/16681; assay: Pre-exposure prophylaxis in non-human primate model against DENV-2/16681; type: in vivo, rhesus monkeys (Macaca mulatta); conditions: for reduction in median peak DENV RNA compared with vehicle, significance / median reduction in DENV peak RNA levels compared with vehicle control: Bayesian nonlinear dose-response model; for onset of DENV RNA and peak RNA / DENV RNA throughout the study period (up to day 28): day -1 to day 10; for onset of DENV RNA and peak RNA: in some animals; for median reduction in DENV peak RNA levels compared with vehicle control: estimated
Procedure: Compound (a) was tested in a non-human primate (NHP) model against DENV-2/16681. The setup of the experiment was designed as a pre-exposure prophylaxis (PreP) study. Oral administration of compound (a) started one day before experimental infection (day −1) and continued with daily administrations until 10 days post-infection. On day 0, the animals were infected by intradermal inoculation with 100 TCID50 of DENV-2/16681 virus in a total volume of 0.1 mL (FIG. 11).
The rhesus monkeys were divided in 7 groups representing the following treatment regimens: • (i) Vehicle 100% PEG400 (n=5) • (ii) Group 1: 0.01 mg/kg/dose, q.d. (n=3), • (iii) Group 2: 0.18 mg/kg/dose, q.d. (n=3), • (iv) Group 3: 3 mg/kg/dose, q.d. (n=3), • (v) Group 4: 0.024 mg/kg/dose, q.d. (n=4), • (vi) Group 5: 0.09 mg/kg/dose, q.d. (n=4), • (vii) Group 6: 0.93 mg mg/kg/dose, q.d. (n=4).
The antiviral activity of compound (a) in a prophylactic setting is being assessed in DENV-2/16681 infected rhesus monkeys (Macaca mulatta). Blood samples were taken on a daily basis from day 0 until day 11, and on day 14 and day 28. DENV RNA was measured using real-time qPCR as described by Santiago et al. (2013). Results from compound (a) doses of 0.01, 0.024, 0.09, 0.18, 0.93 and 3 mg/kg, administered once daily from day 1 before infection until day 10 post infection, are shown in FIGS. 12A and B.
Based on a Bayesian nonlinear dose-response statistical model, the peak viral load reduction compared with vehicle was estimated for each dose group. […] A dose dependent median reduction in DENV peak RNA levels of 0.78, 1.91, 4.73 and 6.76 log10 genome copy equivalents (GCE) per milliliter (GCE/mL) plasma compared with vehicle control was estimated with the 0.09, 0.18, 0.93 and 3 mg/kg doses, respectively (Table 1).

[2] = tested on: DENV-2 Rega lab strain; assay: Lethal DENV challenge study (survival study) in AG129 mice with 4G2 antibody-dependent enhancement; type: in vivo; conditions: monitored max. 25 days, 10^6 PFU
Procedure: In the lethal DENV challenge study (or survival study), antibody-dependent-enhancement (ADE) induced dengue disease is imitated by injecting AG129 mice (n=10 per group) i.p. with Anti-Flavivirus Group Antigen Antibody, clone D1-4G2-4-15 (‘4G2’; Millipore), one day prior to challenge with DENV-2 Rega lab strain (1×10^6 PFU, i.p.). Animals were treated by administering compound (b) by oral gavage with a first administration at one hour prior to infection. The treatment continued for five consecutive days with one administration of compound (b) every 12 hours (twice daily or b.i.d.). (FIG. 15X).
The mice were divided in several groups (n=8/group for the viremia study and n=10/group for the survival study) representing the following treatment regimens: • (i) vehicle, 80%/20% PEG400/H2O • (ii) compound (b): 30 mg/kg/dose b.i.d. • (iii) compound (b): 10 mg/kg/dose b.i.d. • (iv) compound (b): 3 mg/kg/dose b.i.d. • (v) compound (b): 1 mg/kg/dose b.i.d.
Next, the impact of compound (b) was assessed on virus-induced disease and mortality when dosed (orally, b.i.d.) for just 5 consecutive days starting at the day of infection (survival study). Animals were monitored for a maximum period of 25 days. All but one (19 of 20) vehicle-treated mice had to be euthanized. At a dose of 30 mg/kg, 90% of the mice survived the viral challenge and at doses of 10, 3 and 1 mg/kg, the survival rate was respectively 80%, 85% and 75% (FIG. 15Z).

[3] = tested on: DENV-2/Rega lab strain; assay: AG129 mouse model, low viral input (10^2 PFU), PrEP, post-exposure prophylaxis and treatment (delayed treatment start); type: in vivo, AG129 mice; conditions: 30 mg/kg/dose b.i.d.; for viral load at viral rebound: start 2 days after infection (group 4)
Procedure: AG129 mice, age- and sex-matched (6 to 9 weeks of age), were used to assess the activity of compound (b) on viral RNA levels in the serum of the mice. The animals were infected intraperitoneally (i.p.) with 1×10^2 PFU DENV-2/Rega lab strain and treated for five consecutive days with compound (b) which was administered by oral gavage. Compound (b) was administered every 12 hours (twice daily or b.i.d.).
The mice were divided in six treatment groups (n=8/group) representing the following treatment regimens: • (i) Vehicle 80%/20% PEG400/H2O (group 1), • (ii) 30 mg/kg/dose compound (b) b.i.d.: first administration 1 hour before infection (group 2), • (iii) 30 mg/kg/dose compound (b) b.i.d., first administration 1 day after infection (group 3), • (iv) 30 mg/kg/dose compound (b) b.i.d., first administration 2 days after infection (group 4), • (v) 30 mg/kg/dose compound (b) b.i.d., first administration 3 days after infection (group 5), • (vi) 30 mg/kg/dose compound (b) b.i.d., first administration 4 days after infection (group 6), • (vii) 30 mg/kg/dose compound (b) b.i.d., first administration 5 days after infection (group 7), • (viii) 30 mg/kg/dose compound (b) b.i.d., first administration 6 days after infection (group 8).
Blood for viral RNA load detection was collected from mice in two alternating sub-groups. Each sub-group comprised half of the mice (n/2=4) from each of the treatment groups (i) to (viii). Blood was collected from a first sub-group at days 2, 4, 6, 8 and 12 p.i. and from a second sub-group at days 3, 5, 7, 9 and 14 p.i. At day 12 p.i., half of the mice in each treatment group (n=4/group) were sacrificed. The remaining mice in each treatment group (n=4/group) were sacrificed at day 14 p.i. (FIG. 17Y).

[4] = first administration 4 days after infection (group 6)
[5] = first administration 5 days after infection (group 7)

## COc1cc(NC(C(=O)c2c[nH]c3ccc(OC(F)(F)F)cc23)c2ccc(Cl)cc2OC)cc(S(C)(=O)=O)c1 (centres unmarked) [compound (a)]
[1]; 0.01 mg/kg q.d. oral
  reduction in median peak DENV RNA compared with vehicle, significance: No statistically significant reduction
[1]; 0.024 mg/kg q.d. oral
  reduction in median peak DENV RNA compared with vehicle, significance: No statistically significant reduction
[1]; 0.09 mg/kg q.d. oral
  onset of DENV RNA and peak RNA: delayed onset of DENV RNA and peak RNA
  median reduction in DENV peak RNA levels compared with vehicle control: 0.78 log10 GCE/mL
[1]; 0.18 mg/kg q.d. oral
  onset of DENV RNA and peak RNA: delayed onset of DENV RNA and peak RNA
  median reduction in DENV peak RNA levels compared with vehicle control: 1.91 log10 GCE/mL
[1]; 0.93 mg/kg q.d. oral
  DENV RNA throughout the study period (up to day 28): No DENV RNA was detectable
  median reduction in DENV peak RNA levels compared with vehicle control: 4.73 log10 GCE/mL
[1]; 3 mg/kg q.d. oral
  DENV RNA throughout the study period (up to day 28): No DENV RNA was detectable
  median reduction in DENV peak RNA levels compared with vehicle control: 6.76 log10 GCE/mL

## COc1cc(NC(C(=O)N2CCc3ccc(OC(F)(F)F)cc32)c2ccc(Cl)cc2)cc(OCCCC(=O)O)c1 (centres unmarked) [compound (b)]
[2]; 1 mg/kg b.i.d. orally for 5 days
  survival rate: 75%
[2]; 3 mg/kg b.i.d. orally for 5 days
  survival rate: 85%
[2]; 10 mg/kg b.i.d. orally for 5 days
  survival rate: 80%
[2]; 30 mg/kg b.i.d. orally for 5 days
  survival rate: 90%
[3]; first administration 1 hour before infection (group 2)
  viral RNA in the serum: undetectable levels
[3]; first administration 1 day after infection (group 3)
  viral RNA in the serum: undetectable levels
[3]; first administration 2 days after infection (group 4), except two measurements
  viral RNA in the serum: undetectable levels
[3]; first administration 3 days after infection (group 5)
  viral load until day 9 post infection: undetectable viral load
[3]; [4]
  peak viral load reduction: 1.1 log10 copies/mL
  time to undetectable viral load compared with vehicle treated mice: undetectable viral load was reached earlier
[3]; [5]
  peak viral load reduction: 0.7 log10 copies/mL
  time to undetectable viral load compared with vehicle treated mice: undetectable viral load was reached earlier
[3]; first administration 6 days after infection (group 8)
  time to undetectable viral load compared with vehicle treated mice: undetectable viral load was reached earlier
[3]; day 9 post infection
  viral load at viral rebound: 3.0 log10 copies/mL
[3]; day 14 post infection
  viral load at viral rebound: 4.7 log10 copies/mL
[3]; start 3 days after infection (group 5), day 12 post infection
  viral RNA detected: 5.0 log10 copies/mL

Reference: patent US12702657B2, “Treatment and prevention of dengue disease” (Janssen Pharmaceuticals, Inc., priority 2019, dated 2026)
